Measurements taken from patent EP2161266A1, “Benzofuran derivatives as orexin receptor antagonists” (EVOTEC Neurosciences GmbH, priority 2008, dated 2010).
pIC50: −log10 of the molar value.

Molecular target: T1, OX1 (Mus musculus, UniProt P58307)
T1 sequence (P58307 1-416): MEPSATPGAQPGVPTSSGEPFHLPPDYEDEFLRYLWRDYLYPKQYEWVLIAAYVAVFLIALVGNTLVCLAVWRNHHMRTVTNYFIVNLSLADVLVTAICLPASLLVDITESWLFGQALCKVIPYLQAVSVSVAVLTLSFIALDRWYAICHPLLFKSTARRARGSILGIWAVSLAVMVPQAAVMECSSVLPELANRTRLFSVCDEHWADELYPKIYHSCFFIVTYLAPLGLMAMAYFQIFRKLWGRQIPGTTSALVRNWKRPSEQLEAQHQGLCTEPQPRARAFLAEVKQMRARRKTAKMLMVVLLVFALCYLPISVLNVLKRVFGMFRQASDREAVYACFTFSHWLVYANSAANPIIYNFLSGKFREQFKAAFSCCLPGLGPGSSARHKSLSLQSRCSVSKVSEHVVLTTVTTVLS
Assay: not given
Details: pretreatment before naloxone-precipitated withdrawal; Sharf et al, Biol Psychiatry, 2008; cited from earlier work

Row | Compound | withdrawal symptoms
1 | Cc1nc2ccc(NC(=O)Nc3ccnc4cccnc34)cc2o1 [SB-334867] | striking reduction in several withdrawal symptoms

Molecular target: T2, human Orexin-1 receptor (hOX1R) (Homo sapiens, UniProt O43613)
T2 construct: host or cells: CHO-K1
T2 sequence (O43613 1-425): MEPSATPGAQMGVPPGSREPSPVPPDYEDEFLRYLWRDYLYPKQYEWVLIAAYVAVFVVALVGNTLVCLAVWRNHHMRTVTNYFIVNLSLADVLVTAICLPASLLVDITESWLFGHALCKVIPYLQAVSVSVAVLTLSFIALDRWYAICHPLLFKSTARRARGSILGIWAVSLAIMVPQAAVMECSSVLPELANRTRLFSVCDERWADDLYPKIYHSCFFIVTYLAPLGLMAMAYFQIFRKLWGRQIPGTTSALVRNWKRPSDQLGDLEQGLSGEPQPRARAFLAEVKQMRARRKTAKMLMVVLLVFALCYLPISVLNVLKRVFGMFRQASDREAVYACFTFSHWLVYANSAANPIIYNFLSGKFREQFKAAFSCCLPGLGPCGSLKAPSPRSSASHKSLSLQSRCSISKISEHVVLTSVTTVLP
Assay: Ca2+-flux assay for IC50 determination in CHO-hOX1R cells (Orexin-A stimulated)
Type: cell-based
Details: 5nM Orexin-A agonist, fluo-4 fluorescence, compounds 1.28nM to 20µM, triplicates, read-out: 0X1
Source text: A CHO-K1 cell line stably expressing human Orexin-1 receptor (hOX1R, coding sequence of AF041243) was obtained from Euroscreen/PerkinElmer (CHO-hOX1R, ES-330-C). A plasmid containing the human Orexin-2 receptor (hOX2R) cDNA was purchased from RZPD (RZPDo834A1045-pT-REx-DEST30). The human Orexin-2 receptor coding region was amplified in a gradient PCR reaction using hOX2Rfor (5' ccaggatccgc […]) and hOX2Rrev (5' […]) primers containing restriction sites for the restriction enzymes BamHI and NotI. The PCR reaction was performed with the LightCycler system from Roche Applied Science. The amplified DNA fragment was digested with restriction enzymes BamHI and Notl (Fermentas) and subsequently cloned into the BamHI/NotI sites of the pFB-Neo vector (Stratagene) thereby generating plasmid pFB-Neo-hOX2R. For a stably expressing CHO-hOX2R cell line viral transduction of CHO-K1 cells were performed by using the pFB-Neo-hOX2R plasmid and the pVPack vector system from Stratagene according to the manufacturer's manual. Cells expressing the hOX2 receptor were selected using G418 at a final concentration of 500µg/ml and single cell clones were produced by limited dilution cloning.
CHO-hOX1R cells were grown in HAM F12 Nutrient Mixture (Sigma, N6658), 10%Fetal Bovine Serum (Sigma, F9665), 1% Penstrep (Sigma, p4333) and […] G418 (Sigma, A1720). CHO-hOX2R cells were grown in DMEM F12 medium (Sigma, D8437) supplemented with 10%Fetal Bovine Serum (Sigma, F9665), 1% Penstrep (Sigma, p4333) and […] G418 (Sigma, A1720). Cells were maintained under 5% CO2 atmosphere at 37°C. Cells were passaged every 2-3 days.
CHO-hOX1R and CHO-hOX2R cells were seeded at a density of 7500 cells per well into black, 384 well Costar Cellbind plates and cultured overnight in the appropriate cell culture medium as described above without G418 selection. The next day the medium was removed and the cells were incubated for 1.5hrs at 37°C in fluo-4, AM dye solution [2µM fluo-4,AM (Molecular Probes; F-14202, Lot#28C1-12) in 5mM probenecid (Sigma, P-8761, Lot# 121K1662), 0.1% Bovine Serum Albumin (BSA, MERCK, 1.12018.0100), 1xHBSS (Invitrogen, 14025-050), 20mM HEPES (Invitrogen,. 15630-056)]. […] All compound concentrations were measured in triplicates. Subsequently, agonist solution (5nM Orexin-A, TOCRIS, 1455) in 5mM probenecid, 0.1% BSA, 1xHBSS, 20mM HEPES was added during incubation of the plate at 37°C in the fluorescence plate reader (FlexStation, Molecular Devices). Fluorescence was measured for 0-60 seconds per well at an excitation of 485nm and emission of 538nm. For EC50 determination of Orexin-A the cells were incubated as described above for 20min at 37°C in probenecid buffer (5mM probenecid, 0.1% BSA, 1xHBSS, 20mM HEPES, 1%DMSO) without compound solution. Agonist injection occurred in the fluorescence plate reader (FlexStation, Molecular Devices) at different concentrations ranging from 0-100nM in 5mM probenecid, 0.1% BSA, 1xHBSS, 20mM HEPES. Detection of fluorescence was as described above.

Row | pIC50 | Compound
2 | > 5.52 | CCOc1ccc(NC(=O)c2oc3ccccc3c2C)cc1 [Example 9, N-(4-Ethoxyphenyl)-3-methyl-2-benzofurancarboxamide]
3 | > 6.00 | Cc1c(C(=O)Nc2ccc3c(ccn3C)c2)oc2ccccc12 [Example 10, N-(1-Methyl-1H-indol-5-yl)-3-methyl-2-benzofurancarboxamide]
4 | > 6.52 | CCN(CC)c1ccc(NC(=O)c2oc3ccccc3c2OC)cc1 [Example 12, N-[4-(Diethylamino)phenyl]-3-methoxy-2-benzofurancarboxamide]
5 | > 6.00 | CCN(CC)c1ccc(NC(=O)c2cc3ccccc3o2)cc1 [Example 13, N-[4-(Diethylamino)phenyl]-2-benzofurancarboxamide]
6 | > 6.00 | Cc1nc2ccc(NC(=O)c3oc4ccccc4c3C)cc2s1 [Example 14, N-(2-Methyl-6-benzothiazolyl)-3-methyl-2-benzofurancarboxamide]
7 | > 5.52 | CCN(CC)c1ccc(NC(=O)c2oc3ccccc3c2NC(C)=O)cc1 [Example 15, N-[4-(Diethylamino)phenyl]-3-(acetylamino)-2-benzofurancarboxamide]
8 | > 6.00 | N-(4-Thioanisolyl)-3-methyl-2-benzofurancarboxamide [Example 11]

Continued, compound first:

Row | Compound | pIC50
9 | Cc1c(C(=O)Nc2ccc3c(c2)OCCO3)oc2ccccc12 [Example 1, N-(2,3-Dihydro-1,4-benzodioxin-6-yl)-3-methyl-2-benzofurancarboxamide] | > 5.52
10 | CCN(CC)c1ccc(NC(=O)c2oc3ccccc3c2C)cc1 [Example 2, N-[4-(Diethylamino)phenyl]-3-methyl-2-benzofurancarboxamide] | > 6.52
11 | Cc1nc2ccc(NC(=O)c3oc4ccccc4c3C)cc2o1 [Example 3, N-(2-Methyl-6-benzoxazolyl)-3-methyl-2-benzofurancarboxamide] | > 6.52
12 | CCN(CC)c1ccc(NC(=O)c2oc3ccccc3c2COC)cc1 [Example 4, N-[4-(Diethylamino)phenyl]-3-(methoxymethyl)-2-benzofurancarboxamide] | > 6.00
13 | CCc1c(C(=O)Nc2ccc(N(CC)CC)cc2)oc2ccccc12 [Example 5, N-[4-(Diethylamino)phenyl]-3-ethyl-2-benzofurancarboxamide] | > 6.52
14 | CCc1c(C(=O)Nc2ccc3nc(C)oc3c2)oc2ccccc12 [Example 6, N-(2-Methyl-6-benzoxazolyl)-3-ethyl-2-benzofurancarboxamide] | > 6.52
15 | COc1ccc(NC(=O)c2oc3ccccc3c2C)cc1Cl [Example 7, N-(3-Chloro-4-methoxyphenyl)-3-methyl-2-benzofurancarboxamide] | > 5.52
16 | Cc1c(C(=O)Nc2ccc3c(c2)OCCCO3)oc2ccccc12 [Example 8, N-(3,4-dihydro-2H-1,5-benzodioxepin-7-yl)-3-methyl-2-benzofurancarboxamide] | > 5.52
